From US9937250B2, “Immunogenic tumor associated stromal cell antigen peptides and methods of their use” (University of Pittsburgh—Of the Commonwealth System of …, priority 2011, dated 2018)
Where no end group is shown, it is not given here.

Experiments:
[1] = tested on: CD8+ T cells from HLA-A2+ normal donors or HLA-A2+ melanoma patients; assay: In vitro sensitization of human CD8+ T cells with TASA peptide-pulsed autologous DC, IFN-γ ELISA against peptide-pulsed T2 cells; type: cell-based
Method: The indicated peptides were pulsed onto autologous DC and used to prime and boost CD8^+ T cells isolated from the peripheral blood of eight normal HLA-A2^+ donors or ten HLA-A2^+ patients with melanoma. Seven days after the primary in vitro sensitization (IVS) (melanoma patients) or a secondary IVS boost (normal donors), T cells were analyzed for their reactivity against HLA-A2^+ T2 cells pulsed with the relevant peptide vs. the negative control HIV-nef190-198 peptide. After 24 hours of co-culture, cell-free supernatants were analyzed for levels of secreted IFN-γ using a commercial ELISA. Data are reported in Bar and Whisker plots, with p-values provided for paired pre- versus post-IVS data from normal donors and patients. In addition, p<0.05 was detected for MEL-Post versus ND-Post for the following peptides: DLK1 (309), NG2 (770), NG2 (2238), PDGFRβ (891) and RGS5 (5).
In vitro assessment of human CD8^+ T cell responses against TASA- or TAA-derived peptides. Peripheral blood mononuclear cells (PBMC) were obtained by venipuncture or leukapheresis from HLA-A2^+ normal donors or HLA-A2^+ melanoma patients with written consent under IRB-approved protocols (Table 3). CD8^+ T cells were then isolated by MACS (Miltenyi Biotec, Auburn, Calif.) and either not stimulated or stimulated with autologous, TASA peptide-pulsed DC as previously described (Tatsumi et al., Cancer Res., 63:4481-4489, 2003). Normal donor T cells were stimulated with TASA peptide-pulsed DC twice on a weekly schedule, with responder T cells harvested for analysis of their specificity 5 days after the booster stimulation (i.e. day 12 of T cell-DC co-culture). Melanoma patient CD8^+ T cells were analyzed after a single round of stimulation with TASA peptide-pulsed, autologous DC (i.e. day 5 of T cell-DC co-culture) as indicated. For DC-based stimulations, DC were pulsed with an equimolar (1 μM each) pool of the TASA peptides (Table 4) for 4 h at 37° C. at 5% CO2 tension. These antigen-loaded DC were then used to stimulate autologous CD8^+ T cells at a T cell-to-DC ratio of 10:1 to generate a bulk population of responder T cells. T cells were maintained in IMDM media supplemented with 10% human AB serum, 100 U/ml penicillin, […], 10 mM L-glutamine and MEM non-essential amino acids (all reagents from Invitrogen, except human AB serum that was purchased from Sigma-Aldrich, St. Louis, Mo.). Responder CD8^+ T cells were analyzed for reactivity against control (HLA-A2^+) T2 cells or T2 cells pulsed with individual TASA or TAA peptides (1 μM for 4 h at 37° C.) at a CD8^+ T cell-to-T2 cell ratio of 5:1 for 24 h. Harvested cell-free supernatants were consequently assessed for hIFN-γ content using a specific ELISA (BD Biosciences, San Diego, Calif.) with a lower detection limit of 4.7 pg/ml.
CD8^+ T cells from HLA-A2^+ normal donors or HLA-A2^+ melanoma patients recognize TASA-derived peptides in vitro. To assess whether the TASA-derived peptides identified in the HHD tumor model were also capable of being recognized by human CD8^+ T cells, IVS was performed using T cells isolated from the peripheral blood of HLA-A2^+ donors or HLA-A2^+ patients with melanoma. DC were pulsed with peptides derived from a given TASA for 4 h at 37° C., then washed and used as stimulator cells for autologous CD8^+ T cells. In cases where more than one peptide existed for a given protein, DC were pulsed with an equimolar (10 μM) mixture of each peptide. Two rounds of IVS using TASA for normal donors and a single-round of IVS using TASA for melanoma patients was applied. HLA-A2^+ normal donors (FIG. 4; Tables 4, 5A and 5B) and melanoma patients (FIG. 4; Tables 4, 5A and 5B) were each capable of recognizing many of the TASA-derived peptides.

[2] = tested on: MC38 colon carcinoma; assay: MC38 protection (prophylactic vaccination) model; type: in vivo, HHD mice; parameters: key to Anti-tumor efficacy in MC38 protection model: +/-, p < 0.05 versus DC only for 2 consecutive time points; - not significant at any time point analyzed; details: for Protection against HLA-A2neg MC38 tumor challenge: immunization days -14 and -7, tumor challenge day 0 (FIG. 9B); for Anti-tumor efficacy in MC38 protection model: DC.IL12 pulsed with a pool of 1 or more peptides derived from the indicated TBVA, vaccination d-14, d-7
Description: FIGS. 9A-9B show a series of graphs illustrating induction of specific/protective CD8^+ T cells reactive against TASA as a consequence of DC/peptide-based vaccination. In FIG. 9A, HHD mice (five animals/cohort) were vaccinated twice (d-14, d-7) subcutaneously with PBS or with isologous DC.IL12 pulsed with PBS or synthetic peptides (Table 6) derived from the indicated TASA. In cases where more than 1 peptide was identified for a given target antigen, an equimolar pool of the indicated peptides (each 10 μM) was pulsed onto DC.IL12 and used for vaccination in the relevant cohort. One week after the second immunization, spleens were harvested and splenic CD8^+ T cells isolated using MACS-beads (Miltenyi). T cells were stimulated in vitro for 48 h using the HLA-A2^+ T2 cell line pulsed with relevant TASA vs. irrelevant HIV-nef190-198 ([…]; ref. 24) peptides. Cell-free supernatants were then recovered and IFN-γ levels by ELISA. Data are reported as mean+/−SD for triplicate ELISA determinations, and are representative of 3 independent experiments performed. *p<0.05 vs. HIV-nef control peptide responses. In FIG. 9B, HHD mice were vaccinated twice (days −14 and −7; right flank) subcutaneously with PBS or with isologous DC.IL12 pulsed with PBS or synthetic TASA peptides as indicated in FIG. 1A. In cases where more than 1 peptide is identified for a given target antigen, an equimolar pool of the indicated peptides (each 10 μM) was pulsed onto DC.IL12 and used for vaccination in the relevant cohort. One week after the booster vaccine (i.e. day zero), animals were challenged subcutaneously on their left flank with 2×10^6 MC38 colon carcinoma cells. Tumor growth was then monitored every 3-4 days through day 24. All data represent mean tumor area (in mm^2)+/−SD determined from 5 mice/cohort, and are representative of three independent experiments performed. *p<0.05 versus DC only on the indicated days.
Vaccine Experiments. For prophylactic experiments, HHD mice were immunized subcutaneously on the right flank with 100 μl PBS or PBS containing 10^6 syngenic DC.IL12 cells that had been untreated or pre-pulsed for 4 h at 37° C. with 10 μM synthetic peptide(s). Immunizations occurred on days −14 and −7, with mice subsequently receiving injections of MC38 (2×10^6) tumor cells in the left flank on d0. In all cases, treatment groups contained 5 mice per cohort. For analysis of tumor cellular composition in repeat experiments, MC38 tumors were isolated by surgical resection 10 days after tumor inoculation and prepared for fluorescence imaging, as described below. […] Mice were then untreated or treated with control, syngenic DC.IL12 or DC.IL12 (10^6 cells injected subcutaneously in the left flank on days 7 and 14) pulsed with synthetic TBVA peptides. In some assays, as indicated, in vivo antibody depletions (on days 6, 13 and 20 post-tumor inoculation to assess early involvement or on days 60 and 67 or 180 and 187 to assess late involvement) of protective CD4^+ T cells or CD8^+ T cells were performed and monitored as previously described (Zhao et al., Mol Ther., 19:805-814, 2011). In all cases, tumor size (area) was monitored every 3-4 days and is reported as mean+/−SD in mm^2.
The DLK1, EphA2, HBB, NG2, NRP1, NRP2, PDGFRβ, PSMA, RGS5, TEM1, VEGFR1 and VEGFR2 antigens were expressed in situ by blood vessel cells in the MC38 colon carcinoma TME (FIG. 14). Protection of HHD mice against a challenge with HLA-A2^neg MC38 tumor cells injected subcutaneously on day zero was assayed with immunization with TBVA-derived peptides on days −14 and −7. […]

| Substance | Specific CD8+ T cell Production of IFN-γ in Response to TASA ([1]; donor Mel8, melanoma patient) | Specific CD8+ T cell Production of IFN-γ in Response to TASA ([1]; donor ND2, normal donor) | Specific CD8+ T cell Production of IFN-γ in Response to TASA ([1]; donor ND4, normal donor) | Protection against HLA-A2neg MC38 tumor challenge [2] | Specific CD8+ T cell Production of IFN-γ in Response to TASA ([1]; donor Mel4, melanoma patient) | Specific CD8+ T cell Production of IFN-γ in Response to TASA ([1]; donor Mel6, melanoma patient) | Specific CD8+ T cell Production of IFN-γ in Response to TASA ([1]; donor Mel7, melanoma patient) | Specific CD8+ T cell Production of IFN-γ in Response to TASA ([1]; donor ND5, normal donor) | Anti-tumor efficacy in MC38 protection model [2] | Specific CD8+ T cell Production of IFN-γ in Response to TASA ([1]; donor Mel1, melanoma patient) | Specific CD8+ T cell Production of IFN-γ in Response to TASA ([1]; donor Mel2, melanoma patient) | Specific CD8+ T cell Production of IFN-γ in Response to TASA ([1]; donor Mel5, melanoma patient) |
| --- | --- | --- | --- | --- | --- | --- | --- | --- | --- | --- | --- | --- |
| PDGFRβ: PDGFRβ-derived peptide 890-898 pulsed onto DC or DC.IL12 (ILLWEIFTL; listed as Homo sapiens) | + (Human responses were designated as + if T cell reactivity against T2 cells presenting the indicated peptide (IFN-γ ELISA) was >30 pg/ml and more than 2 fold higher than reactivity versus T2 cells pulsed with the negative control HIV-nef190-198 peptide) | + (Human responses were designated as + if T cell reactivity against T2 cells presenting the indicated peptide (IFN-γ ELISA) was >30 pg/ml and more than 2 fold higher than reactivity versus T2 cells pulsed with the negative control HIV-nef190-198 peptide) | + (Human responses were designated as + if T cell reactivity against T2 cells presenting the indicated peptide (IFN-γ ELISA) was >30 pg/ml and more than 2 fold higher than reactivity versus T2 cells pulsed with the negative control HIV-nef190-198 peptide) | effective in preventing HLA-A2^neg MC38 tumor establishment or they resulted in the regression of tumors |  |  |  |  |  |  |  |  |
| VEGFR1: VEGFR1-derived peptide 770-778 pulsed onto DC or DC.IL12 (TLFWLLLTL; listed as Homo sapiens) |  |  |  | minimal protection | + (Human responses were designated as + if T cell reactivity against T2 cells presenting the indicated peptide (IFN-γ ELISA) was >30 pg/ml and more than 2 fold higher than reactivity versus T2 cells pulsed with the negative control HIV-nef190-198 peptide) | + (Human responses were designated as + if T cell reactivity against T2 cells presenting the indicated peptide (IFN-γ ELISA) was >30 pg/ml and more than 2 fold higher than reactivity versus T2 cells pulsed with the negative control HIV-nef190-198 peptide) | + (Human responses were designated as + if T cell reactivity against T2 cells presenting the indicated peptide (IFN-γ ELISA) was >30 pg/ml and more than 2 fold higher than reactivity versus T2 cells pulsed with the negative control HIV-nef190-198 peptide) | + (Human responses were designated as + if T cell reactivity against T2 cells presenting the indicated peptide (IFN-γ ELISA) was >30 pg/ml and more than 2 fold higher than reactivity versus T2 cells pulsed with the negative control HIV-nef190-198 peptide) | +/- (+/-, p < 0.05 versus DC only for 2 consecutive time points) |  |  |  |
| PSMA: PSMA-derived peptide 441-450 pulsed onto DC or DC.IL12 (LLQERGVAYI; listed as Homo sapiens) |  |  |  | minimal protection | + (Human responses were designated as + if T cell reactivity against T2 cells presenting the indicated peptide (IFN-γ ELISA) was >30 pg/ml and more than 2 fold higher than reactivity versus T2 cells pulsed with the negative control HIV-nef190-198 peptide) | + (Human responses were designated as + if T cell reactivity against T2 cells presenting the indicated peptide (IFN-γ ELISA) was >30 pg/ml and more than 2 fold higher than reactivity versus T2 cells pulsed with the negative control HIV-nef190-198 peptide) |  |  | - |  |  |  |
| NRP2: equimolar pool of the three NRP2-derived peptides (214-222, 328-336, 436-444), pulsed onto DC or DC.IL12 (chain 1 DIWDGIPHV; chain 2 YLQVDLRFL; chain 3 NMLGMLSGL; also: equimolar pool of three peptides; listed as Homo sapiens) |  |  |  | minimal protection | + (Human responses were designated as + if T cell reactivity against T2 cells presenting the indicated peptide (IFN-γ ELISA) was >30 pg/ml and more than 2 fold higher than reactivity versus T2 cells pulsed with the negative control HIV-nef190-198 peptide) |  |  |  | - | + (Human responses were designated as + if T cell reactivity against T2 cells presenting the indicated peptide (IFN-γ ELISA) was >30 pg/ml and more than 2 fold higher than reactivity versus T2 cells pulsed with the negative control HIV-nef190-198 peptide) | + (Human responses were designated as + if T cell reactivity against T2 cells presenting the indicated peptide (IFN-γ ELISA) was >30 pg/ml and more than 2 fold higher than reactivity versus T2 cells pulsed with the negative control HIV-nef190-198 peptide) | + (Human responses were designated as + if T cell reactivity against T2 cells presenting the indicated peptide (IFN-γ ELISA) was >30 pg/ml and more than 2 fold higher than reactivity versus T2 cells pulsed with the negative control HIV-nef190-198 peptide) |
